# Data taken from patent US11046684B2, “Compound for selectively inhibiting kinase and use thereof” (SHANGHAI ZHEYE BIOTECHNOLOGY LIMITED-LIABILITY COMPANY, priority 2017, dated 2021).
# Legend:
# [1] = tested on: SK-hep-1; test: HCC cell proliferation inhibition, SRB method; assay type: cell-based; conditions: Homo sapiens, SK-HEP1, 72 hours
# Procedure: (§1) The inhibitory activities of the compounds of the examples on cell proliferation in vitro were tested using five hepatocellular carcinoma cell lines: Hep3B, Huh7, JHH-7, SK-hep-1, SNU423. The above cells were all from ATCC (American Type Culture Collection). Among them, Hep3B, Huh-7, JHH-7 these three cell lines all have FGF19 gene amplification (increased copy number) and increased mRNA expression level, as well as high level expression of FGFR4 and KLB gene mRNA; SK-hep-1, SNU423 cell lines have no FGF19 gene amplification and the expression level of FGF19 mRNA was very low (Barretina J, Caponigro G, et al. Nature 2012; 483: 603-7.).
# (§2) Cell proliferation was measured using the SRB (Sulforhodamine-B, sulforhodamine B) method. The cells were cultured to a cell fusion of more than 90% and then trypsinized. After counting, the cells were inoculated into 96-well plates at 6000 cells/well. After adherent culture overnight, the test compound was dissolved in DMSO and diluted with complete medium, added to the culture wells to form a 5-fold dilution of 10 concentration gradients from 10 μM. The cells were incubated for further 72 hours, 50 μl of 50% trichloroacetic acid was added to each well and fixed at 4° C. for 1 hour. The trichloroacetic acid in each well was discarded and washed 5 times with 300 μl of double distilled water. After drying at room temperature, 50 μl of 0.4% SRB dye solution (1% acetic acid/0.4% SRB) was added to each well to react for 15 min. The dye solution of each well was discarded, washed 6-7 times with 1% acetic acid, and dried at room temperature. 200 μl of 10 mM Tris solution (pH=10.5) was added to each well and shaken until the solution was clear. The absorbance at 490 nm of each well was measured by a microplate reader. The reading of the wells where the concentration of the test compound was 0 was used as a control, and fitted with Origin 7.5 software, the IC50 value (nM) of the test substance for inhibiting cell proliferation was calculated.
# (§3) The antitumor cell proliferation activities of the compounds of the present invention were measured by the above test, and the measured IC50 (nM) values are shown in Table 2.
# [2] = tested on: JHH-7; test: HCC cell proliferation inhibition, SRB method; assay type: cell-based; conditions: JHH7, 72 hours
# Procedure: as §1, §2, §3
# [3] = tested on: SNU387; test: HCC cell proliferation inhibition, SRB method; assay type: cell-based; conditions: Homo sapiens, SNU-387, 72 hours
# Procedure: [Worded in the source for another cell line; this cell line is reported under the same test.] as §1, §2, §3
# [4] = tested on: Hep3B; test: HCC cell proliferation inhibition, SRB method; assay type: cell-based; conditions: Homo sapiens, 72 hours
# Procedure: as §1, §2, §3
# [5] = tested on: HUH-7; test: HCC cell proliferation inhibition, SRB method; assay type: cell-based; conditions: Homo sapiens, 72 hours
# Procedure: as §1, §2, §3
# [6] = molecular target: T1, FGFR4 kinase recombinant protein (Homo sapiens, UniProt P22455); test: Inhibition of FGFR kinase activity, ADP-Glo method; assay type: biochemical; conditions: 30 min preincubation
# T1 construct: purchased Promega
# Procedure: (§4) The inhibitory activities of the test substances on FGFR kinase were determined by the ADP-Glo method. The human FGFR1, FGFR2 and FGFR4 kinase recombinant proteins and kinase activity assay kit ADP-Glo™ were purchased from Promega, and the FGFR3 kinase recombinant protein was purchased from BPS Bioscience. The test substance, which was diluted gradiently from 1000 nM, was incubated with the FGFR1, FGFR2, FGFR3 or FGFR4 kinase recombinant protein for 30 minutes, reacted with the substrate in the presence of ATP, and ADP-Glo™ detected the generated ADP and further produced chemiluminescence signals. Microplate reader (Perkin Elmer, Envision) were used to determine the reading for each well, and the origin 7.5 was used to calculate and analyze the IC50, i.e. the concentration at which 50% inhibition occurred.
# (§5) The inhibition of the compounds of the present invention on FGFR1-4 kinase activity was measured by the above test, and the measured IC50 (nM) values are shown in Table 1.
# [7] = molecular target: T2, FGFR2 kinase recombinant protein (Homo sapiens, UniProt P21802); test: Inhibition of FGFR kinase activity, ADP-Glo method; assay type: biochemical; conditions: 30 min preincubation
# T2 construct: purchased Promega
# Procedure: as §4, §5
# [8] = molecular target: T3, FGFR3 kinase recombinant protein (Homo sapiens, UniProt P22607); test: Inhibition of FGFR kinase activity, ADP-Glo method; assay type: biochemical; conditions: 30 min preincubation
# T3 construct: purchased BPS Bioscience
# Procedure: as §4, §5
# [9] = molecular target: T4, FGFR1 kinase recombinant protein (Homo sapiens, UniProt P11362); test: Inhibition of FGFR kinase activity, ADP-Glo method; assay type: biochemical; conditions: 30 min preincubation
# T4 construct: purchased Promega
# Procedure: as §4, §5
# [10] = tested on: HCC cells with FGF19 gene amplification; test: HCC cell line panel proliferation, selectivity conclusion; assay type: cell-based; conditions: conclusion from Table 2
# Procedure: as §1, §2
# [11] = tested on: Hep3B transplantation tumor; test: HCC cell subcutaneous transplantation tumor growth inhibition test in nude mice; assay type: in vivo; conditions: for growth inhibition of the transplantation tumor: 50 mg/kg, intragastric, BID 21 days, Hep3B nude mice; for adverse reactions (water and food take, activity, body weight) during administration: all dose groups 50, 100, 150 mg/kg BID, 21 days, tumor-bearing nude mice
# Procedure: The Hep3B cells in the logarithmic growth phase were cultured and collected, and subcutaneously inoculated into the right back of nude mice (female Balb/c Nude mice, from Beijing Vitalriver) at 1×10^7 cells/mouse. When the tumor grew to 50-300 mm^3, tumor-bearing nude mice were randomly grouped, 6 animals per group. Subsequently, each group of animals was administered at the following dose, and the day of the first dose was defined as the first day of the test.
# Blank solvent (ultra-pure water) control group, compound 1, compound 2 were respectively set to 50 mg/kg, 100 mg/kg, 150 mg/kg three dose groups, intragastric administration, twice a day (BID), for 21 consecutive days. The state of the animals was observed daily during the administration; the body weight was measured once a week before the first administration; and the body weight was measured twice a week after the start of the administration. The size of the transplantation tumor was measured every 3 days after the start of administration. Tumor volume (TV)=½×a×b^2, wherein, a and b represent the length and width of the tumor, respectively. The relative tumor volume (RTV) was calculated based on the measured results, RTV=Vt/V0×100, wherein V0 is the measured tumor volume on the day of the cage (i.e., day 0), and Vt is the tumor volume at each measurement.
# After establishing the Hep3B nude mice transplantation tumor model according to the method described above, the mice were divided into three groups and intragastrically administered with a blank solvent (ultra-pure water) control, compound 1 (15 mg/kg, BID), sorafenib (prepared according to the method described in the literature CN1721397A and identified) respectively, 30 mg/kg, once a day (QD), for 21 consecutive days. The growth inhibition on the transplantation tumor of the test substances, animal status and body weight were evaluated in the same manner as above. The tumor volume (TV) was measured and the tumor inhibition rate was calculated according to the tumor inhibition rate (TGI)=(1−T/C)×100%. C: average tumor volume of the control group; T: average tumor volume of the administration group.
# T4 sequence (P11362 22-822): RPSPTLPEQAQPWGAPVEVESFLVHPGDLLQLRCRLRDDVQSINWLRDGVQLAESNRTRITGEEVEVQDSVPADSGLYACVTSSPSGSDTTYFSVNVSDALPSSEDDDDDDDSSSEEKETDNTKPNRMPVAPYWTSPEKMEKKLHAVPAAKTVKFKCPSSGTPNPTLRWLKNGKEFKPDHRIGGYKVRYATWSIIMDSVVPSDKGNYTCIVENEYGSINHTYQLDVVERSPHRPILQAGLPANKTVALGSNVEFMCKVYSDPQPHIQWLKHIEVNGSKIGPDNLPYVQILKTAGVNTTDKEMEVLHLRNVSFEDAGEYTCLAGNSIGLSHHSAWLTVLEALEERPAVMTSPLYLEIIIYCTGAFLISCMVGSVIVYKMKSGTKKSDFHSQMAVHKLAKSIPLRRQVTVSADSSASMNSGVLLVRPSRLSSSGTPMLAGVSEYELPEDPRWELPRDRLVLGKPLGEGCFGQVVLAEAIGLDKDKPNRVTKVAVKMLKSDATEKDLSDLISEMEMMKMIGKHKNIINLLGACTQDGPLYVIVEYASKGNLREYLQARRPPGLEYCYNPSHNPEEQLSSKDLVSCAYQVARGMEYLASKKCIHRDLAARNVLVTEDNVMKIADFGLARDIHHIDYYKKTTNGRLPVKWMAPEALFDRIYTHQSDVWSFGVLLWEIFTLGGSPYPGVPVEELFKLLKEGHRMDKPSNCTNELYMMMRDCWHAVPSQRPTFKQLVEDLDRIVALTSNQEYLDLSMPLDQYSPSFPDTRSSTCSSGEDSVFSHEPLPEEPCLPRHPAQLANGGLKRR
# T2 sequence (P21802 22-821): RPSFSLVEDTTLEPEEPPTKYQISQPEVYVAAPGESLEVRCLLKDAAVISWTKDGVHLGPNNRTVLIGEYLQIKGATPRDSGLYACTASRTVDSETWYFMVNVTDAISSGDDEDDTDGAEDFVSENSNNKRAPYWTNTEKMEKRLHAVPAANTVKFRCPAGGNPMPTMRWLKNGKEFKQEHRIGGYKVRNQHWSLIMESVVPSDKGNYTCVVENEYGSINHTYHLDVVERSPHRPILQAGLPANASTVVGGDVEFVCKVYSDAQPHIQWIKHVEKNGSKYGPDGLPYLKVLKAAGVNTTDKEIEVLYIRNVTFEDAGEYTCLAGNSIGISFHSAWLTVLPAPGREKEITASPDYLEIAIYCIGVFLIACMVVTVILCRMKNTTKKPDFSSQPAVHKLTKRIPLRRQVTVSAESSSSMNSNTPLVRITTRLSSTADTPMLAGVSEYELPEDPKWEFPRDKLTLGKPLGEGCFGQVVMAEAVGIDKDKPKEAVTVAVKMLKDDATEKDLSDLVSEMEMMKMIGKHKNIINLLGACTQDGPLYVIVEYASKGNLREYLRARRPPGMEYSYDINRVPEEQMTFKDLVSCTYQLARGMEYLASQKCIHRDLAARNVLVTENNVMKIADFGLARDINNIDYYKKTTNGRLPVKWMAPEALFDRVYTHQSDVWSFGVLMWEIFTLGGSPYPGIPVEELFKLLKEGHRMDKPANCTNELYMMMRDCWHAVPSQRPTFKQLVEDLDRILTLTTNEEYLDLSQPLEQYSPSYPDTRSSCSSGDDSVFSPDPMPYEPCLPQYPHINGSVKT
# T3 sequence (P22607 23-806): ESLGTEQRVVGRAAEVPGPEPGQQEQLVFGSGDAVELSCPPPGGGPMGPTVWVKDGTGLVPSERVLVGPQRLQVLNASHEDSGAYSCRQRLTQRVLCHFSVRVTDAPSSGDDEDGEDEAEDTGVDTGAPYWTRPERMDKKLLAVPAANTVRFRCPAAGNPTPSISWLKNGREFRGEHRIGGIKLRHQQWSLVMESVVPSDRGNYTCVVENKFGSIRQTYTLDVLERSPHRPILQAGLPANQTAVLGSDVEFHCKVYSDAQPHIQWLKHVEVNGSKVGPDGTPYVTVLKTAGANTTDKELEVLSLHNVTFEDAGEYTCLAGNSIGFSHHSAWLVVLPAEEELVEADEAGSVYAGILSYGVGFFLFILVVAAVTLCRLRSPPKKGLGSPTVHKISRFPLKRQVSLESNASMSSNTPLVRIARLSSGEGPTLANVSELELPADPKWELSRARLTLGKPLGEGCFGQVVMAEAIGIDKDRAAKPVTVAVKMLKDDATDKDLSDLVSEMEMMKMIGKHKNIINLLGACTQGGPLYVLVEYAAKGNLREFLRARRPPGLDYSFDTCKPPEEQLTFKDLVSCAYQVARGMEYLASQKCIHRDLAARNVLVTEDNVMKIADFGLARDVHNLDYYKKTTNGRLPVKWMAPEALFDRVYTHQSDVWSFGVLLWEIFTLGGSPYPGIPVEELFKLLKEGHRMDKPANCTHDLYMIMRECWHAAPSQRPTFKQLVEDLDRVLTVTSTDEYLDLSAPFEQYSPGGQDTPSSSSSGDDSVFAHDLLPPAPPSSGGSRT
# T1 sequence (P22455 22-802): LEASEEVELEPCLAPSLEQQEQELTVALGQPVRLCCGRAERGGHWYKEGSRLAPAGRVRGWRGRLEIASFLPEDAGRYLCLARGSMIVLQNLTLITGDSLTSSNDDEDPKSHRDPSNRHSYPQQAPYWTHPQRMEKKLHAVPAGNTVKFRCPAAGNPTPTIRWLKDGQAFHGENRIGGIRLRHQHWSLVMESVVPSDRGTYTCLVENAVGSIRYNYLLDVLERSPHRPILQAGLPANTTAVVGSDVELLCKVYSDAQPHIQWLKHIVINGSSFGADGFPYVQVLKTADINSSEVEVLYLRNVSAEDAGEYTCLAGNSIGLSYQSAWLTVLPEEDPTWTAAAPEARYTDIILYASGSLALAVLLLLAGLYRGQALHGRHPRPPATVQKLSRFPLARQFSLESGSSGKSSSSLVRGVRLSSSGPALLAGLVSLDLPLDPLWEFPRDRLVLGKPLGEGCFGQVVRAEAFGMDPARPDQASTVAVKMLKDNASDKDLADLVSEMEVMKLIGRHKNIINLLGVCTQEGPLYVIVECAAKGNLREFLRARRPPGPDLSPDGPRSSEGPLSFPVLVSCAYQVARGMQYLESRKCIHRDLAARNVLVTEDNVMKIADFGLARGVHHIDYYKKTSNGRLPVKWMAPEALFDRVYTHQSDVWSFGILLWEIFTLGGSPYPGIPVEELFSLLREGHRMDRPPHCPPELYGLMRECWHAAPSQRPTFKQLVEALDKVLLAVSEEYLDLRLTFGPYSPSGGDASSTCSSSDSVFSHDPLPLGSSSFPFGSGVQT
smiles,measurement,setting,value
C#CCNc1cc(NC(=O)N2CCCc3cc(CN4CCN(C)CC4=O)c(C=O)nc32)ncc1C#N [Compound 1],IC50,[1],> 1000 nM
same,IC50,[2],3 nM
same,IC50,[3],> 1000 nM
same,IC50,[4],0.35 nM
same,IC50,[5],4 nM
same,IC50,[6],0.41 nM
same,IC50,[7],> 1000 nM
same,IC50,[8],> 1000 nM
same,IC50,[9],> 1000 nM
same,selective inhibitory effect on HCC cells with FGF19 gene amplification,[10],significant selective inhibitory effect
same,growth inhibition of the transplantation tumor,[11],significant
same,"adverse reactions (water and food take, activity, body weight) during administration",[11],no adverse reactions occurred
same,efficacy compared with sorafenib 30 mg/kg QD,"[11]; compound 1 15 mg/kg BID, Hep3B nude mouse transplantation tumor model",superior to that of sorafenib
C#CCCNc1cc(NC(=O)N2CCCc3cc(CN4CCN(C)CC4=O)c(C=O)nc32)ncc1C#N [Compound 2],IC50,[1],> 1000 nM
same,IC50,[2],2.6 nM
same,IC50,[3],> 1000 nM
same,IC50,[4],0.4 nM
same,IC50,[5],2.9 nM
same,IC50,[6],0.33 nM
same,IC50,[7],> 1000 nM
same,IC50,[8],> 1000 nM
same,IC50,[9],> 1000 nM
same,selective inhibitory effect on HCC cells with FGF19 gene amplification,[10],significant selective inhibitory effect
same,growth inhibition of the transplantation tumor,[11],significant
same,"adverse reactions (water and food take, activity, body weight) during administration",[11],no adverse reactions occurred
C#CCCNc1cc(NC(=O)N2CCCc3cc(CN4CCOCC4=O)c(C=O)nc32)ncc1C#N [Compound 3],IC50,[3],> 1000 nM
same,IC50,[4],0.62 nM
same,IC50,[5],5.7 nM
same,IC50,[6],0.62 nM
same,IC50,[7],> 1000 nM
same,IC50,[8],> 1000 nM
same,IC50,[9],> 1000 nM
same,selective inhibitory effect on HCC cells with FGF19 gene amplification,[10],significant selective inhibitory effect
[2H]C([2H])([2H])N1CCN(Cc2cc3c(nc2C=O)N(C(=O)Nc2cc(NCCC#C)c(C#N)cn2)CCC3)C(=O)C1 [Compound 4],IC50,[3],> 1000 nM
same,IC50,[4],0.36 nM
same,IC50,[5],2.8 nM
same,IC50,[6],0.37 nM
same,IC50,[7],> 1000 nM
same,IC50,[8],> 1000 nM
same,IC50,[9],> 1000 nM
same,selective inhibitory effect on HCC cells with FGF19 gene amplification,[10],significant selective inhibitory effect
C#CCCCNc1cc(NC(=O)N2CCCc3cc(CN4CCN(C)CC4=O)c(C=O)nc32)ncc1C#N [Compound 6],IC50,[3],> 1000 nM
same,IC50,[4],0.53 nM
same,IC50,[5],4.9 nM
same,IC50,[6],0.59 nM
same,IC50,[7],> 1000 nM
same,IC50,[8],> 1000 nM
same,IC50,[9],> 1000 nM
same,selective inhibitory effect on HCC cells with FGF19 gene amplification,[10],significant selective inhibitory effect
